Converted amounts (≈) assume the structure as drawn.
What was measured:
TNF-α = experiment: LPS-induced TNF-α production in hPBMCs (primary screening, ELISA); assay type: cell-based, human; conditions: LPS-stimulated hPBMCs
Method: TNF-α production by lipopolysaccharides (LPS) in hPBMCs was measured according to the method described by Jansky, L. et al (Physiol. Res. 52: 593-598, (2003)). Blood was collected from healthy donors into Ethylene diamine tetra acetic acid Potassium salt (Potassium EDTA) vacutainer tubes (BD vacutainer). The PBMCs were isolated using gradient centrifugation in Histopaque-1077 solution (Sigma). Isolated PBMCs were suspended in Roswell Park Memorial Institute (RPMI) 1640 culture medium (Gibco BRL, Pasley, UK) containing 10% fetal bovine serum (FBS) (Hyclone, Utah, USA), 100 U/ml penicillin (Sigma Chemical Co. St Louis, Mo.) and 100 μg/ml streptomycin (Sigma Chemical Co. St Louis, Mo.). The cell concentration was adjusted to 1×10^6 cells/ml. The viability as determined by trypan blue dye exclusion was uniformly ≧98%. The cell suspension (100 μl) was added to the wells of a 96-well culture plate. Following cell plating, 79 μl of the culture medium and 1 μl of eight different concentrations of the test compounds (final concentration 0.03, 0.1, 0.3, 1, 3, 10, 30, 100 μg/ml) dissolved in dimethylsulfoxide, (DMSO) Sigma, Mo., USA) were added to the cells. The final concentration of DMSO was adjusted to 0.5%. The vehicle (0.5% DMSO) was used as control. Rolipram (100, 300 μM) was used as a standard. The plates were incubated for 30 min at 37° C. in an atmosphere of 5% carbon dioxide (CO2). Finally, 20 μl (10 μg/ml) per well of LPS, (Escherchia coli 0127:B8, Sigma Chemical Co., St. Louis, Mo.) was added, for a final concentration of 1 μg/ml. The plates were incubated at 37° C. for 5 h in an atmosphere of 5% carbon dioxide (CO2). To assess the cytotoxic effect of the plant extracts, the cellular viability test was performed using 3-(4,5-dimethylthiazol-2-yl)-5-(3-carboxymethoxyphenyl)-2-(4-sulfonyl)-2H-tetrazolium) (MTS) reagent after 5 h of incubation. Supernatants were harvested and assayed for TNF-α by ELISA as described by the manufacturer (OptiElA ELISA sets, BD Biosciences, Pharmingen). […] Percent cytotoxicity of the test compound compared to control is evaluated.

interleukin-1β (IL-1β) = experiment: IL-1β released by LPS-stimulated hPBMCs (ELISA); assay type: cell-based, human
Method: (§1) TNF-α production by lipopolysaccharides (LPS) in hPBMCs was measured according to the method described by Jansky, L. et al (Physiol. Res. 52: 593-598, (2003)). Blood was collected from healthy donors into Ethylene diamine tetra acetic acid Potassium salt (Potassium EDTA) vacutainer tubes (BD vacutainer). The PBMCs were isolated using gradient centrifugation in Histopaque-1077 solution (Sigma). Isolated PBMCs were suspended in Roswell Park Memorial Institute (RPMI) 1640 culture medium (Gibco BRL, Pasley, UK) containing 10% fetal bovine serum (FBS) (Hyclone, Utah, USA), 100 U/ml penicillin (Sigma Chemical Co. St Louis, Mo.) and 100 μg/ml streptomycin (Sigma Chemical Co. St Louis, Mo.). The cell concentration was adjusted to 1×10^6 cells/ml. The viability as determined by trypan blue dye exclusion was uniformly ≧98%. The cell suspension (100 μl) was added to the wells of a 96-well culture plate. […] Percent cytotoxicity of the test compound compared to control is evaluated.
The effect of the plant extract on the proinflammatory cytokines: interleukin-1β (IL-1β), interleukin-6 (IL-6) and interleukin-8 (IL-8) was measured using the supernatants generated in the primary screening assay. […]

[1] = system: human peripheral blood mononuclear cells; experiment: Cellular viability test (MTS) in hPBMCs; assay type: cell-based
Method: as §1, with “plate. Following cell plating, 79 μl of the culture medium and 1 μl of eight different concentrations of the test compounds (final concentration 0.03, 0.1, 0.3, 1, 3, 10, 30, 100 μg/ml) dissolved in dimethylsulfoxide, (DMSO) Sigma, Mo., USA) were added to the cells. The final concentration of DMSO was adjusted to 0.5%. The vehicle (0.5% DMSO) was used as control. Rolipram (100, 300 μM) was used as a standard.” for “plate.”

| IC50, TNF-α inhibition (TNF-α) [µg/mL] | IC50 against IL-1 (interleukin-1β (IL-1β)) [µg/mL] | SMILES | inhibition at 100 µM (TNF-α; Homo sapiens, 100 μM, read-out: % Inhibition of TNF-α release) [%] | inhibition at 300 µM (TNF-α; Homo sapiens, 300 μM, read-out: % Inhibition of TNF-α release) [%] | % Toxicity 5 h ([1]; 100 μM) [%] | % Toxicity 5 h ([1]; 300 μM) [%] |
| --- | --- | --- | --- | --- | --- | --- |
| 5.9 (≈ 18.5 µM) | 0.4 (≈ 1.26 µM) | CC1=CCCC2C1(C)CCC(C)C2(C)CCC1=CC(=O)OC1O (stereo not drawn) [Compound 1, 16-hydroxycleroda-3,13(14)-dien-15,16-olide] |  |  |  |  |
|  |  | COc1ccc(C2CNC(=O)C2)cc1OC1CCCC1 (stereo not drawn) [Rolipram] | 100 | 100 | 2 | 10 |
